Values quoted from earlier work in publication PMC2791716 (Biotechnology and bioengineering, 2009).
Where two headings read alike, the source gives them in different places.

Legend:
[1] = no reference given
[2] = tested on: cell adhesion to laminin-1; details: ref Nakahara et al. 1996

COc1cccc2c1C(=O)c1c(O)c3c(c(O)c1C2=O)C[C@@](O)(C(=O)CO)C[C@@H]3O[C@H]1C[C@H](N)[C@H](O)[C@H](C)O1 [doxorubicin]
minimum effective therapeutic concentration ([1]; systemic delivery): 50 mg/kg | minimum effective therapeutic concentration ([1]; systemic vascular concentration, converted from 50mg/kg): approximately 90 μM

TWYKIAFQRNRK
inhibition of cell adhesion to laminin-1 [2]: 90%
